In patent US11976116B2, “Salvage chimeric antigen receptor systems” (2seventy bio, Inc., priority 2016, dated 2024):

Assays:
[1] = test system: K562-BCMA positive cells; assay: Cytotoxicity assay, CAR T cells co-cultured with K562-BCMA positive and negative cells; type: cell-based; details: 20 nM AP21967, 24 hours, E:T 5:1
Method: (§1) Human PBMCs (1×10^6 cells/mL) were activated with soluble anti-CD3 and anti-CD28 antibodies (50 ng/ml) on day 0. After 24 hr incubation, 1×10^6 cells were transduced with lentivirus encoding either an anti-BCMA CAR or an anti-BCMA salvage CAR. The transduced cells were washed and resuspended at 0.3×10^6 cells/mL growth medium on day 3. The CAR T cells were cultured for 7 days with IL-2 (250 IU/mL) containing medium changed every other day.
The cytotoxic potential of anti-BCMA CAR T cells and anti-BCMA salvage CAR T cells was analyzed by co-culturing day 10 CAR T cells (E, effector cells) with a 50:50 mixture of K562-BCMA positive cells (GFP positive) (T, target cells) and K562-BCMA negative cells (BFP positive) for 24 hours at an E:T ratio of 5:1. Cells were co-cultured with or without 20 nM AP21967 (a non-immunosuppressive rapamycin analog). The ratio of K562-BCMA positive cells to K562-BCMA negative cells is a direct readout of CAR T cell cytotoxicity.

[2] = test system: K562-BCMA positive cells; assay: IFNγ release assay (ELISA), CAR T cells co-cultured with K562-BCMA positive cells; type: cell-based; details: 24 hours, E:T 1:1
Method: as §1
Antigen dependent cytokine secretion was analyzed by co-culturing day 10 CAR T cells with K562-BCMA positive cells for 24 hours at an E:T ratio of 1:1 (with or without AP21967). Culture supernatants were collected and IFNγ production was analyzed using the IFNγ ELISA kit (eBiosciences).

[3] = test system: BCMA negative, CD19 positive Nalm-6 cells; assay: Cytotoxicity assay, anti-BCMA salvage CAR T cells co-cultured with Nalm-6-CD19 positive and K562-CD19 negative cells; type: cell-based; details: 250 ng pre-loaded receptor, with or without 100 nM AP21967, 24 hr, E:T 2:1
Source text: 293 T cells were transduced with lentivirus encoding the dimerizable anti-CD19 salvage receptor to generate a stable source of secreted anti-CD19-scFv-FKBP12 proteins (FIG. 1, right panel). Supernatant containing soluble anti-CD19 salvage receptor polypeptides (anti-CD19 scFV FKBP12) was collected from stable 293T-710 cells and filtered.
The anti-CD19 salvage receptor forms a heterodimer with the anti-BCMA salvage CAR in the presence of AP21967 (FIG. 3A). The cytotoxic potential of anti-BCMA salvage CAR T cells (E) against BCMA negative, CD19 positive Nalm-6 cells (T) was analyzed by co-culturing CAR T cells with a 50:50 mixture of Nalm-6-CD19 positive cells (GFP positive) and K562-CD19 negative cells (BFP positive) for 24 hours at an E:T ratio of 2:1. The co-cultures were treated with vehicle or 100 nM AP21967 and with different volumes of 293T-710 cell supernatant (0 μl, 10 μl, or 30 μl). […] FIG. 3B.
T cells were transduced with lentiviral vectors encoding an anti-BCMA CAR or anti-BCMA salvage CAR. The CART cells were co-cultured with a 50:50 mixture of CD19 positive Nalm-6 cells expressing GFP and CD19 negative K562 cells expressing BFP, in the presence or absence of 250 ng pre-loaded dimerizable anti-CD19 salvage receptor, with or without 100 nM AP21967, for 24 hr, at a 2:1 E:T ratio. […] FIG. 5. AP21967 was not required to trigger the CD19 specific cytotoxicity. […]

[4] = target and assay not given; cited from earlier work

Structure (SMILES): CO[C@H]1[C@@H](O)[C@H](C)C[C@H](C)/C=C/C=C/C=C(\C)[C@@H](c2c[nH]c3c(C)cccc23)C[C@@H]2CC[C@@H](C)[C@@](O)(O2)C(=O)C(=O)N2CCCC[C@H]2C(=O)O[C@H]([C@H](C)C[C@@H]2CC[C@@H](O)[C@H](OC)C2)C[C@H](O)[C@H](C)/C=C(\C)[C@H]1O [AP21967, C-16-(S)-7-methylindolerapamycin]
- effect of AP21967 on cytotoxicity [1]: no effect on cytotoxicity
- effect of AP21967 in the IFNγ release co-culture [2]: did not substantially affect cytotoxicity
- requirement of AP21967 for CD19 specific cytotoxicity [3]: not required
- IC50 [4]: 10 nM
